In test [1] the test system is PBMCs from healthy donors and cancer patients. Description: IFNγ ELISPOT of PBMCs pre-stimulated one week in vitro with peptide and low-dose IL-2. It is filed as cell-based, human. Particulars: for IFNγ ELISPOT response: ARG2 peptide library screen, PBMCs from 6 healthy donors, FIG. 3. On the procedure: For in vitro ELISPOT, PBMCs from cancer patients and healthy donors were pulsed with 20 μM of […] (or with no peptide as a control) and 120 U/ml IL-2 in 24-well plates for 7 days before being used in an ELISPOT assay. The cells were placed in 96-well nitrocellulose ELISPOT plates (MultiScreen MAIP N45; Millipore) pre-coated with IFNγ capture antibody (Mabtech). Arginase peptides added to a final concentration of 5 μM and plates incubated at 37° C. for 14-16 hours. After the incubation the cells were washed off and secondary biotinylated Ab (Mabtech, cat. 3420-{6-1000) was added for 2 hours at room temperature. Unbound secondary antibody was washed off and streptavidin conjugated alkaline phosphatase (AP) (Mabtech, cat. 3310-10) was added for 1 hour at room temperature. Unbound conjugated enzyme was washed off and the assay was developed by adding BCIP/NBT substrate (Mabtech, cat. 3650-10). Developed ELISPOT plates were analyzed on CTL ImmunoSpot S6 Ultimate-V analyzer using Immunospot software v5.1. Responses were reported as the difference between average numbers of spots in wells stimulated with arginase2 and wells without added peptide.
To test whether these peptides could be used to identify Arginase2 responses, PBMCs from 12 healthy donors and one cancer patients were screened for responses in IFNγ ELISPOT. PBMCs were stimulated with Arginase2 peptides and low dose IL-2 for 1 week prior to ELISPOT.
The entire arginase2 protein sequence was divided into overlapping 20-amino-acid-long peptides (with a final peptide of 24 amino acids), generating a library of 34 peptides covering the whole sequence (SEQ ID NOs 1-34)). Each peptide in the library overlapped with the first 10 amino acids of the following peptide. Using this arginase2 peptide library and the IFNγ ELISPOT assay, we next screened PBMCs from 6 healthy donors for spontaneous responses. The PBMCs were stimulated for one week with a pool of 3-4 adjacent 20-mer arginase2 library peptides and low-dose IL-2 (120 U/mL). They were then set up for an IFNγ ELISPOT assay to screen for responses against each 20-mer peptide separately.
PBMCs from two healthy donors were stimulated for one week with a single peptide and low-dose IL-2 (120 U/mL) before IFNy ELISPOTassay to validate the responses observed in the library screen.
PBMCs from […] were stimulated for one week with a single peptide and low-dose IL-2 (120 U/mL) before IFNy ELISPOTassay to validate the responses observed in the library screen. ARG2_1, ARG2_5, ARG2_13, ARG2_18 and ARG2_22 were tested in this validation.
ARG2_1 was used to screen for responses in 8 melanoma patients (AA07-AA31), 4 prostate cancer patients (UR07-27) and 13 healthy donors. PBMCs from each were stimulated for one week with a single peptide and low-dose IL-2 (120 U/mL) before IFNy ELISPOT assay.
PBMCs from healthy donors or cancer patients were stimulated with 10 μM of ARG2-derived peptides in vitro to enhance assay sensitivity. On day 2, IL-2 was added to a total of 120 U/ml IL-2 (Novartis). After 7 days, 4-6×10^5 PBMCs were placed at the bottom of an ELISPOT plate pre-coated with IFNy capture antibody (Mabtech). PBMCs from each donor or patient were set up in triplicates or quadruplicates for peptide (5 μM ARG2-derived peptide) and control stimulations. Cells were incubated in ELISPOT plates in the presence of an antigen for 14-16 hrs after which they were washed off and secondary biotinylated antibody (Mabtech) was added. After two hour incubation the secondary antibody was washed off before addition of streptavidin conjugated alkaline phosphatase (Mabtech) for 1 hr. Next, unbound enzyme was washed off and the assay was developed by adding BCIP/NBT subtrate (Mabtech). Developed ELISPOT plates were analyzed on CTL Immunospot S6 Ultimate-V analyzer with ImmunoSpot software, version 5.1. […]

Test [2] deals with PBMCs (CD4+ and CD8+ T cells). Kind of test: Intracellular cytokine staining (IFNγ, TNFα) of peptide-stimulated PBMCs by flow cytometry. The test is classed as cell-based, human. The note with it: for double positive (DP) CD4+ cells: FIG. 6; for intracellular cytokine staining for IFNy and TNFα production: healthy donors and cancer patients with solid tumors, Example 2, FIG. 14B/15D. The method, then: Intracellular staining of cell cultures was performed after PBMCs were stimulated with arginase-derived peptides (or incubated with no peptide as a control) for 5 hours in the presence of BD GolgiPlug™ (added after the first hour of peptide stimulation). Stimulated cells were stained with fluorescently labeled antibodies for surface markers (CD3, CD4, CD8) and thereafter permeabilized by using Fixation/Permeabilization and Permeabilization Buffer (eBioscience, cat. 00-{5123-43), according to manufacturer's instructions. Permeabilized cells were then stained with fluorochrome-labeled antibodies for IFNγ and TNFα. Flow cytometry analysis was performed on a FACSCanto™ II (BD Biosciences). Antibodies used: IFNγ-APC (cat.341117), TNFα-[…] BV421 (cat.562783), CD4-FITC (cat.347413), CD8-PerCP (cat.345774), CD3-APC-H7 (cat. 560275) (all from BD Biosciences), dead cells stain-FVS510 (564406, BD Biosciences) according to manufacturer's instructions.
Intracellular staining of cell cultures was performed on PBMCs after one week of ARG2-derived peptide stimulation in vitro. For the assay, 9×10^5 PBMCs were re-stimulated with ARG2-derived peptides (or incubated with no peptide as a control) for 5 hours in the presence of BD GolgiPlug™ (added after the first hour of peptide stimulation). Stimulated cells were stained with fluorescently labeled antibodies for surface markers (CD3, CD4, CD8) and thereafter permeabilized by using Fixation/Permeabilization and Permeabilization Buffer (eBioscience, cat. 00-{5123-43), according to manufacturer's instructions. Permeabilized cells were then stained with fluorochrome-labeled antibodies for IFNγ and TNFα. Flow cytometry analysis was performed on a FACSCanto™ II (BD Biosciences). Antibodies used: IFNγ-APC, TNFα-BV421, CD4-PerCP, CD8-FITC, CD3-APC-H7, CD4-FITC, CD8-PerCP, and dead cells stain-FVS510 (all from BD Biosciences) according to manufacturer's instructions. For intracellular cytokine staining to detect cytokine production of ARG2-specific T cells in response to target cells, 5×10^5 ARG2 specific cells were incubated with 2.5×10^5 target cells for 5 hours with GolgiPlug™ added after the first hour.
For orientation: In flow cytometry, cells or beads pass a laser one at a time.

Entries after “also recorded” stand apart in the source; their conditions may differ.

On to “LQTRVHSILKKSVHSVAVIG (listed as Homo sapiens) [ARG2_1, polypeptide derived from human Arginase2, aa11-30]”, for which, in test [1] (8 melanoma patients, 4 prostate cancer patients and 13 healthy donors (15 out of 25), FIG. 8), the “donors with significant IFNy ELISPOT responses” value stood at 60%. The “screened donors with significant IFNy ELISPOT responses” value in test [1] (33 HDs and 19 cancer patients with solid tumors, FIG. 14A) is reported as “around 75%”. Also, the “IFNγ ELISPOT response” value was “highest and most frequent responses” in test [1] (listed as ARG2-1); “highest responses” in test [1] (listed as Arg2_1). For the same sequence, the “AML patients with a significant IFNy ELISPOT response” value in test [1] (PBMCs from patients diagnosed with AML, FIG. 14A) is reported as 3 out of 9. Further, the “IFNy ELISPOT response” value in test [1] (healthy donors and cancer patients, FIG. 14) is “Strong and frequent responses; also recorded: widely recognized”; in test [1] (validation of other regions, PBMCs from four healthy donors, FIG. 5), “Strong and prominent responses”; in test [1] (validation of other regions, PBMCs from four healthy donors, FIG. 5, listed as Arg2_1), “strong and prominent responses”. Also, the “double positive (DP) CD4+ cells” value in test [2] (healthy donor Buf-M-01, IFN-gamma and TNF-alfa) amounted to 0.2%; in test [2] (healthy donor Buf-M-02, IFN-gamma and TNF-alfa) it was 0.1%. The “intracellular cytokine staining for IFNy and TNFα production” value in test [2] is “primarily showed CD4+ responses”. In addition, the “CD8+ T cell response in intracellular cytokine staining” value in test [2] (one cancer patient, FIG. 9) was “release more of IFN-gamma (y-axis) and TNF-alfa (x-axis)”. For the same sequence, the “CD8+ DP cells” value in test [2] (prostate cancer patient UR12, control 0.5%, FIG. 9) was 0.9%. Further, the “CD4+ T cell response in intracellular cytokine staining” value in test [2] (two healthy donors, Example 1, FIG. 6) is listed as “reacting specifically; also recorded: release both IFN-gamma (y-axis) or TNF-alfa (x-axis)”.

Turning to “SLRGSLSRLLQTRVHSILKKSVHSVAVIGAPFS (listed as Homo sapiens) [A2L2, long ARG2 peptide, aa2-34, 33-mer]”, in test [1] (6 healthy donors, not significant (p=0.0625), FIG. 15B), the “donors in which A2L2 immune responses were higher than ARG2-1 responses” value was 5 out of 6. Besides, in test [1] (30 healthy donors and 18 cancer patients, FIG. 15), the “IFNy ELISPOT response” value is “strong and frequent CD4+ T-cell responses”. Moreover, the “donors with IFNy ELISPOT responses” value in test [1] (30 healthy donors and 18 cancer patients, FIG. 15C) was “about 80%”. In addition, the “IFNy ELISPOT response to long peptides” value in test [1] (PBMCs from 6 healthy donors stimulated once, FIG. 15A) is “strongest and most frequent immune responses”. Moreover, in test [1] (not significant (p=0.7038), FIG. 15E), the “immune responses compared to ARG2-1 responses in the same donor” value is recorded as “on average higher”. Further, the “intracellular cytokine staining for IFNy and TNFα production” value in test [2] is reported as “only CD4+ responses”.
